Data as given in publication PMC7036548 (Cellular and Molecular Gastroenterology and Hepatology, 2019).

Tests used:
[1] = molecular target: T1, DOR-eGFP (Mus musculus, UniProt P32300); experiment: DOR-eGFP internalization, confocal imaging; conditions: agonist, 1 μmol/L; blocked by naltrindole
[2] = molecular target: human MOR (CHO cells) (Homo sapiens, UniProt P35372); experiment: […]GTPγS binding, CHO membranes; assay type: biochemical; conditions: 10 μmol/L GDP, pH 7.4, RT; no G protein activation
Sequence of human MOR (CHO cells) (P35372 whole entry): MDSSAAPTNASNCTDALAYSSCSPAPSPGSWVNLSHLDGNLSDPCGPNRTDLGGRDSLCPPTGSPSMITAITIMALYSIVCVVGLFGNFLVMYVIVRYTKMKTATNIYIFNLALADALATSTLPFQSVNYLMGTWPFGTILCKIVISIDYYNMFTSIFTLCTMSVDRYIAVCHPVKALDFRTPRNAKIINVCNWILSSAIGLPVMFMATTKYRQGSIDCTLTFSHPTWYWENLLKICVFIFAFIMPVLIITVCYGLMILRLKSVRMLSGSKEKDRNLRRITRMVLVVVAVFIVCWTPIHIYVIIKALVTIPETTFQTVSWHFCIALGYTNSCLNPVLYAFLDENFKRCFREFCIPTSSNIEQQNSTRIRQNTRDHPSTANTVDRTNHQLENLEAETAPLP

[3] = molecular target: T1, DOR-eGFP; experiment: DOR-eGFP internalization, confocal imaging; conditions: agonist; control 73.8 ± 2.6%; myenteric neurons of colon

T1 sequence (P32300 whole entry): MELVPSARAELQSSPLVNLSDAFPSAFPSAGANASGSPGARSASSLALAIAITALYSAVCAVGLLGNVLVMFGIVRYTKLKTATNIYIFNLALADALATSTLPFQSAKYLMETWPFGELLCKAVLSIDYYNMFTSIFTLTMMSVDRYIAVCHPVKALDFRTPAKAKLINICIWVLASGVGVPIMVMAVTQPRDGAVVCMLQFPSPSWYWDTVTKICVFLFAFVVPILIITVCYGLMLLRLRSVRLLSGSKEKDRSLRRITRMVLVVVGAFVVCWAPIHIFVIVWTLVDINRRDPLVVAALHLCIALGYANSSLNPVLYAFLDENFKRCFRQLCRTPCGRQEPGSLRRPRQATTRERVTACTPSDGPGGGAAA

Row | SMILES | DOR-eGFP internalization, confocal imaging [1] | [35S]GTPγS binding, CHO membranes [2] | % cell surface DOR-eGFP at 1 μmol/L [3] [%]
1 | CCOC(=O)C1(CCc2ccccc2)CCN(Cc2ccc(NC(C)=O)cc2)CC1 [CYM51010] | CYM51010 promoted robust internalization of DOR-eGFP in both myenteric and submucosal neurons | increase in G protein activation only in DOR expressing CHO cells | 
2 | C=CCN1C[C@H](C)N([C@H](c2ccc(C(=O)N(CC)CC)cc2)c2cccc(OC)c2)C[C@H]1C [SNC80] |  |  | 41.9 ± 2.9
